# Assay results published in patent US8392127B2, “Methods and gene expression signature for assessing growth factor signaling pathway regulation status” (Merck Sharp & Dohme Corp., priority 2008, dated 2013).
# “Also recorded” adds a separate entry of the source.
# How the values were obtained:
# ERBB3 = experiment: mRNA expression of growth factor receptors after growth factor treatment (microarray); assay type: cell-based, human; details: MCF7 and HT29 cells; 100 ng/ml (heregulin 30 ng/ml)
# Description: (§1) FIG. 29. Negative feedback induced by growth factors. The data presented represents the effect of each growth factor on the mRNA expression of (A) EGFR, (B) ERBB3, (C) INSR, or (D) a recently published signature of aberrant PTEN activity. The Y-axes represent the log(10) ratio of expression relative to vehicle. […] The X-axes represent the time point after growth factor addition.
# (§2) MCF-7 and HT-29 cell lines were seeded in 6-well plates to achieve 40-50% confluence at the time of growth factor addition. Cells were serum starved for 24 hours in 0.2% charcoal stripped serum, and growth factors were added at 100 ng/ml (EGF, IGF, insulin, b-FGF) or 30 ng/ml (heregulin). Concentrations of growth factors were chosen to give maximal activation of growth factor receptors as judged by receptor auto-phosphorylation. Activation of growth factor receptor pathways after growth factor addition was confirmed by Western analysis of phosphorylated MAPK and phosphorylated AKT in a separate plate of cells (data not shown). Cells were harvested at 30 minutes, 2 hours, 6 hours, 18 hours, and 24 hours after growth factor addition. DMSO (vehicle) treated cells were also harvested at each time point. RNA was prepared using RLT lysis reagent Qiagen spin columns according to manufacturer instructions.
# (§3) For growth factor and AKT inhibitor treated cells, total RNA was isolated from cell lines and converted to fluorescently labeled cRNA that was hybridized to DNA oligonucleotide microarrays as described previously (Hughes et al., 2001, Nat. Biotechnol. 19:342-347; Marton et al., 1998, Nat. Med. 4:1293-1301). Briefly, 4 μg of total RNA from each treated sample was used to synthesize dsDNA through reverse transcription. cRNA was produced by in vitro transcription and labeled post-synthetically with Cy3 or Cy5. cRNA derived from growth factor or AKT inhibitor treated cells (experimental sample) was hybridized against cRNA derived from vehicle treated samples (reference sample). Two hybridizations were done with each cRNA sample pair using fluorescent dye reversal strategy. For growth factor treated cells, microarrays contained 23,880 probes representing genes or expressed sequence tags (GEO platform GPL2029). For AKT inhibitor treated cells, microarrays contained 23,658 probes representing genes or expressed sequence tags (GEO platform GPL3991). Probe sequences were chosen to maximize gene specificity and minimize the 3′-replication bias inherent in reverse transcription of mRNA. In addition, all microarrays contained approximately 2,000 control probes for quality control purposes. All probes on the microarrays were synthesized in situ with inkjet technology (Agilent Technologies, Palo Alto, Calif.; Hughes et al, 2001, Nat. Biotechnol. 19:342-347). After hybridization, arrays were scanned and fluorescence intensities for each probe were recorded. Ratios of transcript abundance (experimental to control) were obtained following normalization and correction of the array intensity data. Gene expression data was analyzed using Rosetta Resolver gene expression analysis software (version 7.0, Rosetta Biosoftware, Seattle, Wash.) and MATLAB (The MathWorks, Natick, Mass.).
# (§4) As such, care should be taken when using mRNA levels of ERBB3 or INSR as a surrogate for activity of signaling through these receptors.
# INSR = experiment: as above; assay type: cell-based, human; details: MCF7 and HT29 cells; 100 ng/ml (heregulin 30 ng/ml)
# Description: as §1, §2, §3, §4
# EGFR = experiment: as above; assay type: cell-based, human; details: MCF7 and HT29 cells; 100 ng/ml (heregulin 30 ng/ml)
# Description: as §1, §2, §3, §4
# MYC signature [1] = experiment: MYC signature (Bild et al.) in response to inhibition of oncology targets; assay type: cell-based; details: cancer cell lines of FIG. 6C
# Description: FIG. 6. Relationship of AKT and MYC signatures. The AKT and MYC signature scores are highly correlated in the (A) colon (r=0.81) and (B) breast (r=0.82) tumor atlas datasets. The AKT signature score was calculated as described previously. […] (C) The Bild et al. MYC signature is inhibited by small molecule inhibitors of AKT, cMET and FGFR2, but not by taxol or inhibition of KSP. […] Experiments are listed on the left side of the heatmap (HCT116: colon cancer cells, LoVo: colon cancer cells, GTL-16: gastric cancer cells, EBC-1: lung cancer cells, KATO III: gastric cancer cells, SUM52: breast cancer cells). The drug (taxol) or drug target (all others) profiled in each experiment is indicated along the right side of the heatmap.
# Bild et al. published a gene expression signature that was regulated in response to cMYC (also known as MYC) overexpression in primary human mammary epithelial cells (2006, Nature, 439:353-357). This MYC signature was analyzed in the context of tumor expression atlas data. The tumor expression atlas is a collection of gene expression data measured in several different types of human tumors, including breast, colon, gastric, kidney, and lung tumors. […] Therefore, we assessed the regulation of the MYC signature in response to inhibition of AKT and other oncology targets. […]
# DLD-1 = experiment: Sensitivity of colon cancer cell lines to AKT1/2 inhibitor (cell killing); assay type: cell-based, human; details: in vitro, grouping is relative
# Description: (§5) FIG. 2. Cell lines used as a starting point for signature gene discovery. Nineteen colon cancer cell lines were phenotyped for sensitivity to the AKT1/2 inhibitor L-001154547.
# (§6) In order to identify a gene expression signature of growth factor signaling pathway deregulation in human tumors, six colon carcinoma cell lines HCT-8 (ATCC #CCL-244), LoVo (ATCC #CCL-229), COLO205 (ATCC #CLL-222), DLD-1 (ATCC #CCL-221), HCT-116 (ATCC #CCL-247), and HCT-15 (ATCC #CCL-225) were initially expression profiled by microarray to identify genes that are responsive to AKT1/2 small molecule inhibition. The six colon cancer cell lines were treated with either 4 μM AKT1/2 inhibitor L-001154547 ('547; 3-phenyl-2-(4-{[4-(5-pyridin-2-yl-1H-1,2,4-triazol-3-yl)piperidin-1-yl]methyl}phenyl)-1,6-naphthyridin-5(6H)-one; disclosed in WO2006065601) or 4 μM AKT1/2 inhibitor L-01173931 ('931; 6-Methyl-3-phenyl-2-(4-{[4-(5-pyridin-2-yl-1H-1,2,4-triazol-3-yl)piperidin-1-yl]-methyl}phenyl)-1,6-naphthyridin-5(6H)-one; disclosed in WO2006065601) for 6 or 24 hours. Two AKT1/2 inhibitors were used for the profiling experiments as a way to offset any off-target effects of any one compound.
# (§7) Discriminant analysis of responders and non-responders using post-dose changes of gene expression was 90% accurate in leave-one-out cross-validation (data not shown). Among these 1,600 genes, we focused on 399 genes that were tightly correlated (r>0.7) with changes in expression of IRS2 across this dataset, a key mediator of growth pathway signaling (FIG. 3B) (Hennessy et al., 2005, Nat. Rev. Drug Discov. 4:988-1004). Note that the sensitivity and resistance phenotypes shown in FIG. 1 are relative, not absolute.
# COLO205 = experiment: as above; assay type: cell-based, human; details: in vitro, grouping is relative
# Description: as §5, §6, §7
# LoVo = experiment: as above; assay type: cell-based, human; details: in vitro, grouping is relative
# Description: as §5, §6, §7
# HCT-116 = experiment: as above; assay type: cell-based, human; details: in vitro, grouping is relative
# Description: as §5, §6, §7
# HCT-15 = experiment: as above; assay type: cell-based, human; details: in vitro, grouping is relative
# Description: as §5, §6, §7
# HCT-8 = experiment: as above; assay type: cell-based, human; details: in vitro, grouping is relative
# Description: as §5, §6, §7
# MYC signature [2] = experiment: Signature inhibition in the connectivity map dataset; assay type: cell-based; details: c-MYC signature; for Rank in terms of significance of signature inhibition: rank among all compounds
# growth factor signature = experiment: as above; assay type: cell-based; details: for Enrichment / Rank in terms of significance of signature inhibition: Growth Factor Signaling Pathway signature, connectivity map dataset; for Rank in terms of significance of signature inhibition: rank among all compounds; for rank in terms of significance of growth factor signature inhibition: among all compounds in the connectivity map dataset
# Description: (§8) To further validate the growth factor signature, we leveraged signatures of drug response from the connectivity map dataset (Lamb et al., 2006, Science 313:1929-1935). This dataset comprises mRNA expression data for 164 distinct small molecules, representing 453 individual compound treatment experiments. These small molecule inhibitors include the PI3K inhibitors wortmannin and LY-294002 and the mTOR inhibitor sirolimus. We surmised that if the growth factor signature truly represents activation of the PI3K pathway, these compounds should have an inhibitory effect on the signature. […] In contrast, other perturbagens in the connectivity map dataset either have no effect, a less significant inhibitory effect, or an activating effect on the growth factor signaling signature. […] For example, while LY-294002 was the top ranked compound in terms of significance of proliferation signature inhibition, sirolimus was ranked fifth, and wortmannin was ranked 23rd (Table 12).
# proliferation signature = experiment: as above; assay type: cell-based; details: for Enrichment / Rank in terms of significance of signature inhibition: Proliferation signature, connectivity map dataset; for Rank in terms of significance of signature inhibition: rank among all compounds
# Description: as §8
# [3] = tested on: growth factor signaling pathway signature; experiment: Regulation of the growth factor signaling pathway signature by growth factors and inhibitors; assay type: cell-based; details: HT29 and MCF7 cells; 0.5, 2, 6, 18, or 24 hours
# Description: FIG. 9. Inverse regulation of the growth factor signaling pathway signature by growth factors relative to growth factor pathway inhibitors. Genes listed in Table 5 are shown along the Y-axis, and various treatments are listed along the X-axis. The drug treatment/drug targets are listed along the left hand side, and functional groupings are listed along the right hand side. […] From the growth factor compendium, we show data from both colon (HT29) and breast (MCF7) cells treated with heregulin (a growth factor that binds to Erbb family receptors and activates PI3K/AKT signaling). Cells were treated with heregulin for 0.5, 2, 6, 18, or 24 hours.
# Because we developed this novel growth factor signaling pathway signature based on regulation by inhibitors of growth factor pathway signaling, we hypothesized that our signature genes would be inversely regulated in vitro by treatments that activate growth factor signaling.
Compound,ERBB3 mRNA expression (ERBB3),INSR mRNA expression (INSR),Enrichment (MYC signature [2]),Rank in terms of significance of signature inhibition (MYC signature [2]),Enrichment (growth factor signature),Rank in terms of significance of signature inhibition (growth factor signature),rank in terms of significance of growth factor signature inhibition (growth factor signature),Enrichment (proliferation signature),Rank in terms of significance of signature inhibition (proliferation signature),also measured
EGF: growth factor added to cells at 100 ng/ml,significant down-regulation,significant down-regulation,,,,,,,,EGFR mRNA expression (EGFR): did not result in down-regulation
CC(=O)O[C@H]1C(=O)[C@@]2(C)[C@H]([C@H](OC(=O)c3ccccc3)[C@]3(O)C[C@H](OC(=O)[C@H](O)[C@@H](NC(=O)c4ccccc4)c4ccccc4)C(C)=C1C3(C)C)[C@]1(OC(C)=O)CO[C@@H]1C[C@@H]2O [taxol],,,,,,,,,,inhibition of the MYC signature developed by Bild et al. (MYC signature [1]): not inhibited
"O=c1[nH]ccc2nc(-c3ccc(CN4CCC(c5n[nH]c(-c6ccccn6)n5)CC4)cc3)c(-c3ccccc3)cc12 [L-001154547, 3-phenyl-2-(4-{[4-(5-pyridin-2-yl-1H-1,2,4-triazol-3-yl)piperidin-1-yl]methyl}phenyl)-1,6-naphthyridin-5(6H)-one]",,,,,,,,,,sensitivity to AKT inhibition (DLD-1): more resistance; also recorded: relatively resistant; sensitivity to AKT inhibition (COLO205): more sensitive; also recorded: relatively sensitive; sensitivity to AKT inhibition (LoVo): more sensitive; also recorded: relatively sensitive; sensitivity to AKT inhibition (HCT-116): more resistance; also recorded: relatively resistant; sensitivity to AKT inhibition (HCT-15): more resistance; also recorded: relatively resistant; sensitivity to AKT inhibition (HCT-8): more sensitive; also recorded: relatively sensitive
COC[C@H]1OC(=O)c2coc3c2[C@@]1(C)C1=C(C3=O)[C@@H]2CCC(=O)[C@@]2(C)C[C@H]1OC(C)=O [wortmannin],,,−0.561,7,−0.776,2,2,−0.387,23,rank in terms of significance of proliferation signature inhibition (proliferation signature; among all compounds in the connectivity map dataset): 23
b-FGF: growth factor added to cells at 100 ng/ml,significant down-regulation,significant down-regulation,,,,,,,,
O=c1cc(N2CCOCC2)oc2c(-c3ccccc3)cccc12 [LY-294002],,,−0.602,2,−0.748,3,3,−0.527,1,
CO[C@H]1C[C@@H]2CC[C@@H](C)[C@@](O)(O2)C(=O)C(=O)N2CCCC[C@H]2C(=O)O[C@H]([C@H](C)C[C@@H]2CC[C@@H](O)[C@H](OC)C2)CC(=O)[C@H](C)/C=C(\C)[C@@H](O)[C@@H](OC)C(=O)[C@H](C)C[C@H](C)/C=C/C=C/C=C/1C [sirolimus],,,−0.68,1,−0.865,1,1,−0.482,5,

# Now from value to compound, other results behind:
ERBB3 mRNA expression (ERBB3),INSR mRNA expression (INSR),Compound,Enrichment (MYC signature [2]),Rank in terms of significance of signature inhibition (MYC signature [2]),Enrichment (growth factor signature),Rank in terms of significance of signature inhibition (growth factor signature),rank in terms of significance of growth factor signature inhibition (growth factor signature),Enrichment (proliferation signature),Rank in terms of significance of signature inhibition (proliferation signature),also measured
significant down-regulation,significant down-regulation,IGF: growth factor added to cells at 100 ng/ml,,,,,,,,
significant down-regulation,significant down-regulation,insulin: growth factor added to cells at 100 ng/ml,,,,,,,,
significant down-regulation,significant down-regulation,heregulin,,,,,,,,regulation of the growth factor signaling pathway signature genes [3]: inverse regulation of the signature genes
